Measured values as given in ChEMBL document CHEMBL1149931, “4-(2-pyridyl)-2,2-dimethylnaphthalen-1-ones as new potassium channel activators with increased airways selectivity” (Bioorg Med Chem Lett, 1995).

Key:
[1] = organism: Rattus norvegicus; assay: Compound was evaluated for its hypotensive activity (decrease in blood pressure) in normotensive rats.; assay type: functional
[2] = test system: Rattus norvegicus; assay: Changes in systolic blood pressure was measured at intervals of 1 hr for 4 hr after oral administration of 0.1 mg/kg in rats; assay type: functional, Artery
[3] = organism: Cavia porcellus; assay: Compound was evaluated for its hypotensive activity (decrease in blood pressure) in male guinea pigs.; assay type: functional
[4] = test system: Cavia porcellus; assay: Compound was evaluated in vivo for its ability to inhibit methacholine induced bronchospasm in male guinea pig.; assay type: functional
[5] = organism: Cavia porcellus; assay: Concentration required to inhibit spontaneous tone of guinea pig isolated tracheal spirals; assay type: functional; conditions: Trachea
[6] = organism: Rattus norvegicus; assay: Concentration required to inhibit NA-induced contractions in rat portal vein by 50%; assay type: functional
[7] = organism: Rattus norvegicus; assay: Percent inhibition of NA-induced contractions in rat portal vein at 10 uM was evaluated; assay type: functional; conditions: for inhibition at 10 µM: Rattus norvegicus

CC1(C)C=C(c2cccc[n+]2[O-])c2cc(Br)ccc2C1=O
ED25 [1]: 0.0877 mg/kg | Max fall in blood pressure [2]: 53 mmHg | ED25 [3]: 0.0891 mg/kg | ED50 [4]: 0.148 mg/kg | IC50 [5]: 230 nM | IC50 [6]: 810 nM

CC1(C)C=C(c2ccccn2)c2cc(Br)ccc2C1=O
IC50 [5]: > 10000 nM | IC50 [6]: 48000 nM

CC1(C)C=C(c2cccc[n+]2[O-])c2cc(C#N)ccc2C1=O
ED25 [1]: 0.079 mg/kg | ED25 [3]: 0.0647 mg/kg | ED25 [4]: 0.0303 mg/kg | IC50 [5]: 200 nM | IC50 [6]: 900 nM

CC1(C)CC(O)(c2cccc[n+]2[O-])c2cc(C#N)ccc2C1=O (stereo not drawn)
IC50 [5]: 7300 nM | inhibition at 10 µM [7]: 30%

CC1(C)C=C(c2cccc[n+]2[O-])c2cc(C(F)(F)C(F)(F)F)ccc2C1=O
ED25 [1]: 0.776 mg/kg | ED25 [3]: 0.0876 mg/kg | ED25 [4]: 0.036 mg/kg | IC50 [5]: 110 nM | IC50 [6]: 590 nM

CC1(C)C=C(c2cccc[n+]2[O-])c2cc(Cl)c(Cl)cc2C1=O
ED25 [1]: 0.079 mg/kg | Max fall in blood pressure [2]: 74 mmHg | ED25 [3]: 0.0933 mg/kg | ED50 [4]: 0.0912 mg/kg | IC50 [5]: 210 nM | IC50 [6]: 470 nM

CC1(C)Oc2ccc(C#N)cc2[C@H](N2CCCC2=O)[C@H]1O (single isomer, unassigned) [(-)-CROMAKALIM]
ED25 [1]: 0.0215 mg/kg | ED25 [3]: 0.0075 mg/kg | ED25 [4]: 0.0162 mg/kg | IC50 [5]: 280 nM | IC50 [6]: 100 nM

CC1(C)C(=O)c2ccc(Br)cc2C2(c3cccc[n+]3[O-])OC12 (stereo not drawn)
IC50 [5]: 1700 nM | Inhibition [7]: 12%

COC1(c2cccc[n+]2[O-])CC(C)(C)C(=O)c2ccc(Br)cc21 (stereo not drawn)
IC50 [5]: > 10000 nM | inhibition at 10 µM [7]: 20%

CC1(C)CC(c2cccc[n+]2[O-])c2cc(C#N)ccc2C1=O (stereo not drawn)
Max fall in blood pressure [2]: 99.5 mmHg | IC50 [5]: 2500 nM | IC50 [6]: 160 nM
